Test results: patent US7402548B2, “Benzoxazole compounds, process for producing the same and herbicides” (Kyoyu Agri Co., Ltd., priority 2000, dated 2008)

Tests used:
barnyard grass [1] = test: Herbicidal test for paddy field; type: in vivo, Eschinochloa crusgalli; conditions: 500 g/ha, dropwise addition to paddy water at 1.5 leaf stage of barnyard grass; glass house 25° C., 3 weeks; rank 0-5 vs non-treated district
Experimental: (§1) Wagner pots, each having an area of 1/5000 are, were packed with Ube soil (alluvial soil) and planted with seeds or tubers of young rice plant, barnyard grass, bulrush, Cyperus serotinus Rottb., arrowhead and monochoria. Then, the pots were filled with water to a depth of 3 cm.
(§2) Each wettable powder of the desired Compounds (I) shown in Tables 1 to 21, 24, 25, 28 and 29 prepared in accordance with Example 2 was diluted with water containing a surfactant (0.05%) and subjected to dropwise addition treatment by using pipet so that an effective concentration of the compound (I) in each herbicide became 500 g/ha at 1.5 leaf stage of barnyard grass.
(§3) These plants were controlled in a glass house at an average temperature of 25° C. for 3 weeks, and then herbicidal effects thereof were investigated.
(§4) The herbicidal effects are evaluated according to the following 6 ranks as compared with non-treated district. (0: normal development, 1: Less damaged, 2: Slightly damaged, 3: Moderately damaged, 4: Severely damaged, 5: All killed). Incidentally, “-” in the column means not investigated.

monochoria = test: Herbicidal test for paddy field; type: in vivo, Monochoria vaginalis; conditions: 500 g/ha, dropwise addition to paddy water at 1.5 leaf stage of barnyard grass; glass house 25° C., 3 weeks; rank 0-5 vs non-treated district
Experimental: as §1, §2, §3, §4

corn [2] = test: Soil treatment test for upland field; type: in vivo; set-up: key: 0 = normal development, 5 = all killed; conditions: 500 g/ha, 3 weeks, glass house 25° C.
Method in brief: (§5)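 Pre-emergence soil spray, 500 g/ha, WP formulation in water + 0.05% surfactant; alluvial soil; glasshouse, avg 25° C, 3 wk. Score 0 (normal) to 5 (all killed) vs untreated.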

soybean = test: Soil treatment test for upland field; type: in vivo; set-up: key: 0 = normal development, 5 = all killed; conditions: 500 g/ha, 3 weeks, glass house 25° C.
Method in brief: as §5

wheat [3] = test: Soil treatment test for upland field; type: in vivo; set-up: key: 0 = normal development, 5 = all killed; conditions: 500 g/ha, 3 weeks, glass house 25° C.
Method in brief: as §5

Large crabgrass [4] = test: Soil treatment test for upland field; type: in vivo, Digitaria adscendens; set-up: key: 0 = normal development, 5 = all killed; conditions: 500 g/ha, 3 weeks, glass house 25° C.
Method in brief: as §5

barnyard grass [5] = test: Soil treatment test for upland field; type: in vivo, Eschinochloa crusgalli; set-up: key: 0 = normal development, 5 = all killed; conditions: 500 g/ha, 3 weeks, glass house 25° C.
Method in brief: as §5

green foxtail [6] = test: Soil treatment test for upland field; type: in vivo, Setaria viridis; set-up: key: 0 = normal development, 5 = all killed; conditions: 500 g/ha, 3 weeks, glass house 25° C.
Method in brief: as §5

annual bluegrass = test: Soil treatment test for upland field; type: in vivo, Poa annua; set-up: key: 0 = normal development, 5 = all killed; conditions: 500 g/ha, 3 weeks, glass house 25° C.
Method in brief: as §5

common lambsquarters [7] = test: Soil treatment test for upland field; type: in vivo, Chenopodium album; set-up: key: 0 = normal development, 5 = all killed; conditions: 500 g/ha, 3 weeks, glass house 25° C.
Method in brief: as §5

livid amaranth [8] = test: Soil treatment test for upland field; type: in vivo, Amaranthus lividus; set-up: key: 0 = normal development, 5 = all killed; conditions: 500 g/ha, 3 weeks, glass house 25° C.
Method in brief: as §5

corn [9] = test: Foliar spread test for upland field; type: in vivo; set-up: key: 0 = normal development, 5 = all killed (6 ranks vs. untreated); conditions: foliar spray, 500 ppm, 3 weeks, glass house 25° C.
Method in brief: (§6)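 Plants grown about 2 weeks at 25 °C in volcanic ash soil were sprayed with wettable powder diluted to 500 ppm in water with 0.5% surfactant. After 3 weeks at 25 °C, damage was scored 0 (normal) to 5 (all killed) against untreated plants.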

wheat [10] = test: Foliar spread test for upland field; type: in vivo; set-up: key: 0 = normal development, 5 = all killed (6 ranks vs. untreated); conditions: foliar spray, 500 ppm, 3 weeks, glass house 25° C.
Method in brief: as §6

Large crabgrass [11] = test: Foliar spread test for upland field; type: in vivo, Digitaria adscendens; set-up: key: 0 = normal development, 5 = all killed (6 ranks vs. untreated); conditions: foliar spray, 500 ppm, 3 weeks, glass house 25° C.
Method in brief: as §6

green foxtail [12] = test: Foliar spread test for upland field; type: in vivo, Setaria viridis; set-up: key: 0 = normal development, 5 = all killed (6 ranks vs. untreated); conditions: foliar spray, 500 ppm, 3 weeks, glass house 25° C.
Method in brief: as §6

common lambsquarters [13] = test: Foliar spread test for upland field; type: in vivo, Chenopodium album; set-up: key: 0 = normal development, 5 = all killed (6 ranks vs. untreated); conditions: foliar spray, 500 ppm, 3 weeks, glass house 25° C.
Method in brief: as §6

livid amaranth [14] = test: Foliar spread test for upland field; type: in vivo, Amaranthus lividus; set-up: key: 0 = normal development, 5 = all killed (6 ranks vs. untreated); conditions: foliar spray, 500 ppm, 3 weeks, glass house 25° C.
Method in brief: as §6

## CCC(Oc1cc(C(F)(F)F)no1)c1nc2cc(C#N)c(F)cc2o1 (centres unmarked) [Compound 1-e-28]
Barnyard grass [1]
  Effects Barnyardgrass: 5
monochoria
  Effects Monochoria: 5
Corn [2]
  Effects Corn: 0
soybean
  Effects Soybean: 1
Wheat [3]
  Effects Wheat: 0
Large crabgrass [4]
  Effects Large crabgrass: 5
Barnyard grass [5]
  Effects Barnyardgrass: 4
Green foxtail [6]
  Effects Green foxtail: 5
Annual bluegrass
  Effects Annual bluegrass: 5
Common lambsquarters [7]
  Effects Common lambsquarters: 5
Livid amaranth [8]
  Effects Livid amaranth: 5
Corn [9]
  Effects Corn: 2
Wheat [10]
  Effects Wheat: 2
Large crabgrass [11]
  Effects Large crabgrass: 4
Green foxtail [12]
  Effects Green foxtail: 4
Common lambsquarters [13]
  Effects Common lambsquarters: 5
Livid amaranth [14]
  Effects Livid amaranth: 5

## CCC(Oc1cc(C(F)(F)F)nn1C)c1nc2cc(C#N)c(Cl)cc2o1 (centres unmarked) [Compound 1-e-11]
Barnyard grass [1]
  Effects Barnyardgrass: 4
monochoria
  Effects Monochoria: 4
Corn [2]
  Effects Corn: 0
Wheat [3]
  Effects Wheat: 0
Large crabgrass [4]
  Effects Large crabgrass: 5
Barnyard grass [5]
  Effects Barnyardgrass: 4
Green foxtail [6]
  Effects Green foxtail: 5
Annual bluegrass
  Effects Annual bluegrass: 5
Common lambsquarters [7]
  Effects Common lambsquarters: 5
Livid amaranth [8]
  Effects Livid amaranth: 5
Wheat [10]
  Effects Wheat: 1
Common lambsquarters [13]
  Effects Common lambsquarters: 5
Livid amaranth [14]
  Effects Livid amaranth: 5

## CCC(Sc1cc(C(F)(F)F)nn1C)c1nc2cc(Cl)ccc2o1 (centres unmarked) [Compound 1-e-12]
monochoria
  Effects Monochoria: 5
Corn [2]
  Effects Corn: 0
soybean
  Effects Soybean: 0
Wheat [3]
  Effects Wheat: 0
Large crabgrass [4]
  Effects Large crabgrass: 5
Barnyard grass [5]
  Effects Barnyardgrass: 3
Green foxtail [6]
  Effects Green foxtail: 2
Annual bluegrass
  Effects Annual bluegrass: 4
Common lambsquarters [7]
  Effects Common lambsquarters: 3
Livid amaranth [8]
  Effects Livid amaranth: 4

## CCCC(Oc1cc(C)nc(C#N)n1)c1nc2cc(C#N)ccc2o1 (centres unmarked) [Compound 1-e-70]
monochoria
  Effects Monochoria: 3
Corn [2]
  Effects Corn: 0
soybean
  Effects Soybean: 0
Wheat [3]
  Effects Wheat: 0
Large crabgrass [4]
  Effects Large crabgrass: 2
Common lambsquarters [7]
  Effects Common lambsquarters: 3
Livid amaranth [8]
  Effects Livid amaranth: 5
